Among the data in patent publication US20230183237A1, “COMPETITIVE AND NONCOMPETITIVE INHIBITORS OF THE MUSCARINIC ACETYLCHOLINE RECEPTOR M5” (Vanderbilt University, priority 2020, published 2023) are IC50 values, retold here.

pIC50: −log10 of the molar value.

In this assay the target is T1, hM5 (Homo sapiens, UniProt P08912).
T1 construct: expressed in transfected cells
T1 sequence (P08912 1-532): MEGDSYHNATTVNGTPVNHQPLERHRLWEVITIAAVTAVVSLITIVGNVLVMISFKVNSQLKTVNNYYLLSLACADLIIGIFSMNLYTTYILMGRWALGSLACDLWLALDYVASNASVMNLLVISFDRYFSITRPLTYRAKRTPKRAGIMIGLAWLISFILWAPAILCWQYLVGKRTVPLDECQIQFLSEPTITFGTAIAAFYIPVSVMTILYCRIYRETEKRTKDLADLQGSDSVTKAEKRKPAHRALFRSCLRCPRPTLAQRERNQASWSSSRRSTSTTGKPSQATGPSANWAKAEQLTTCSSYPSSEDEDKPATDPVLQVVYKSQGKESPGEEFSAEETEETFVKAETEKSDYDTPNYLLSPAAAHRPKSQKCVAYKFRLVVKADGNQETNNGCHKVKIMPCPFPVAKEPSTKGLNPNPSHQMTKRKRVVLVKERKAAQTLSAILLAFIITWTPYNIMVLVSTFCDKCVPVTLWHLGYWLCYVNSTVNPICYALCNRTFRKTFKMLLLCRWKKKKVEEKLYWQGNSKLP
Put plainly: Calcium mobilization concentration-response (IC50 vs EC80 acetylcholine), CHO hM5. The conditions noted are these: CELL LINE hM5; vs EC80 acetylcholine; read-out: IC50. The assay is classed as cell-based. The gist of the method: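 IC50 values derive from percent maximal acetylcholine response after an EC80 ACh addition, measured as kinetic calcium fluorescence (static ratio, max−min). Test compounds were added 140 s before agonist. Cells: stable hM5-CHO in HEPES-buffered HBSS with 2.5 mM probenecid, pH 7.4; ≥3 independent triplicate determinations.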
Background: Calcium flux is commonly read through the fluorescence of an indicator in the cells.

For orientation: pIC50 means −log10 of the IC50, conventionally taken in molar units. Consider `Cc1cc(S(=O)(=O)N2CCC(c3cnc(N(C)C)cc3C)CC2)sn1` [Compound 565, N,N,4-trimethyl-5-(1-((3-methylisothiazol-5-yl)sulfonyl)piperidin-4-yl)pyridin-2-amine], for which the pIC50 was 7.42. As for `Cc1cc(N(C)C)ncc1C1CCN(S(=O)(=O)c2cnc3sccn23)CC1` [Compound 566, 5-(1-(imidazo[2,1-b]thiazol-5-ylsulfonyl)piperidin-4-yl)-N,N,4-trimethylpyridin-2-amine], the negative logarithm of the IC50 (pIC50) was 7.80. For the compound `[2H]C1([2H])CC(c2cn3ncnc3cc2F)CC([2H])([2H])N1S(=O)(=O)c1cnc(C)o1` [Compound 567, 5-((4-(7-fluoro-[1,2,4]triazolo[1,5-a]pyridin-6-yl)piperidin-1-yl-2,2,6,6-d4)sulfonyl)-2-methyloxazole], the negative-log IC50 (pIC50) is 5.86. With `[2H]C1([2H])CC(c2cn3ncnc3cc2C)CC([2H])([2H])N1S(=O)(=O)c1cnc(C)o1` [Compound 568, 2-methyl-5-((4-(7-methyl-[1,2,4]triazolo[1,5-a]pyridin-6-yl)piperidin-1-yl-2,2,6,6-d4)sulfonyl)oxazole] the figure was 7.33; with `[2H]C1([2H])CC(c2cn3ncnc3c(F)c2C)CC([2H])([2H])N1S(=O)(=O)c1cnc(C)o1` [Compound 569, 5-((4-(8-fluoro-7-methyl-[1,2,4]triazolo[1,5-a]pyridin-6-yl)piperidin-1-yl-2,2,6,6-d4)sulfonyl)-2-methyloxazole], 6.76; with `Cn1cc(S(=O)(=O)N2CCC(c3cn4ncnc4cc3F)CC2)nn1` [Compound 571, 7-fluoro-6-(1-((1-methyl-1H-1,2,3-triazol-4-yl)sulfonyl)piperidin-4-yl)-[1,2,4]triazolo[1,5-a]pyridine], < 5.00. With `Cc1cc2ncnn2cc1C1CCN(S(=O)(=O)c2cn(C)nn2)CC1` [Compound 572, 7-methyl-6-(1-((1-methyl-1H-1,2,3-triazol-4-yl)sulfonyl)piperidin-4-yl)-[1,2,4]triazolo[1,5-a]pyridine] the figure was 7.38. As for `COc1c(S(=O)(=O)N2CCC(c3cn4ncnc4cc3C)CC2)cnn1C` [Compound 573, 6-(1-((5-methoxy-1-methyl-1H-pyrazol-4-yl)sulfonyl)piperidin-4-yl)-7-methyl-[1,2,4]triazoto[1,5-a]pyridine], the negative-log IC50 (pIC50) is 7.92.

Take `COc1c(S(=O)(=O)N2CCC(c3cn4ncnc4cc3F)CC2)cnn1C` [Compound 574, 7-fluoro-6-(1-((5-methoxy-1-methyl-1H-pyrazol-4-yl)sulfonyl)piperidin-4-yl)-[1,2,4]triazolo[1,5-a]pyridine]: the pIC50 is 6.86. With `COc1c(S(=O)(=O)N2CCC(c3cn4ncnc4cc3Cl)CC2)cnn1C` [Compound 575, 7-chloro-6-(1-((5-methoxy-1-methyl-1H-pyrazol-4-yl)sulfonyl)piperidin-4-yl)-[1,2,4]triazolo[1,5-a]pyridine] the figure was 8.22; with `COc1c(S(=O)(=O)N2CCC(c3cn4ncnc4c(F)c3C)CC2)cnn1C` [Compound 576, 8-fluoro-6-(1-((5-methoxy-1-methyl-1H-pyrazol-4-yl)sulfonyl)piperidin-4-yl)-7-methyl-[1,2,4]triazolo[1,5-a]pyridine], 7.72; with `Cc1cc2ncnn2cc1C1CCN(S(=O)(=O)c2cnn(C)c2C2CCNCC2)CC1` [Compound 577, 7-Methyl-6-(1-((1-methyl-5-(piperidin-4-yl)-1H-pyrazol-4-yl)sulfonyl)piperidin-4-yl)-[1,2,4]triazolo[1,5-a]pyridine], < 5.00. To `[2H]C1([2H])CC(c2cn3ncnc3cc2Cl)CC([2H])([2H])N1S(=O)(=O)c1cn(C)nn1` [Compound 579, 7-chloro-6-(1-((1-methyl-1H-1,2,3-triazol-4-yl)sulfonyl)piperidin-4-yl-2,2,6,6-d4)-[1,2,4]triazolo[1,5-a]pyridine] belongs 7.54.
